Reference: US20150011751A1, “NOVEL TRIAZINE DERIVATIVE” (CARNA BIOSCIENCES, INC., priority 2012, published 2015)

Target: Dephosphorylated BTK (Homo sapiens, UniProt Q06187)
Assay: Test of activity inhibition against dephosphorylated BTK (mobility shift assay)
Procedure: Kinase activity was measured by a mobility shift assay (MSA) method using QuickScout Screening Assist (trademark) MSA (commercially available kit, manufactured by Carna Biosciences, Inc.). FITC-labeled SRCtide peptide supplied with the kit was used as a substrate of a kinase reaction.
IC50 value was calculated by regression analysis of the inhibition ratio and the test compound concentration (logarithm).
Dephosphorylated BTK was obtained by adding a A protein phosphatase (Code No. P0753S, manufactured by New England BioLabs Inc.) and MnCl2 to a biotinylated BTK protein BTN-BTK (manufactured by Carna Biosciences, Inc.) enzyme solution so as to adjust the concentrations to 10 U/μg and 2 mM, respectively, reacting the mixture at 4° C. overnight, removing the A protein phosphatase through anti-[sequence]-tag antibody agarose gel chromatography, and performing buffer exchange using 10DG Desalting Column.

Chain of Dephosphorylated BTK (Q06187 whole entry): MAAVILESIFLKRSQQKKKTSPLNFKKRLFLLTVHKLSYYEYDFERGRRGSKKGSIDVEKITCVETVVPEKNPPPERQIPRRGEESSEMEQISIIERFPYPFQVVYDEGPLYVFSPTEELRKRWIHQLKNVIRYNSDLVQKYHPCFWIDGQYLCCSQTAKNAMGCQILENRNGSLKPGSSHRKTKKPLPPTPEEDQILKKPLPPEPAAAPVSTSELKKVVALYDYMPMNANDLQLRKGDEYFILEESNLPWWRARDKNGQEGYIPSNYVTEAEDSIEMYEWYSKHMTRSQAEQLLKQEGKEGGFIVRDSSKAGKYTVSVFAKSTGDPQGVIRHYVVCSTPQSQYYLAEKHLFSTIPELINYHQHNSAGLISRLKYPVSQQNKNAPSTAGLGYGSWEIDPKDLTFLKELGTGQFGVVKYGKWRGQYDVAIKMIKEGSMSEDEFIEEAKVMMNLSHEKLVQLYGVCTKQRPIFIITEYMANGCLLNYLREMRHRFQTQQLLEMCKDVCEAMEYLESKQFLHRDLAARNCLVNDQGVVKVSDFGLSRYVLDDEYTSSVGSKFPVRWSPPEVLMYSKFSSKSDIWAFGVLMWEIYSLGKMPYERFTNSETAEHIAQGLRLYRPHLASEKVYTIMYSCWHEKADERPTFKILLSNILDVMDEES

Compound | IC50
CC(C)(O)c1ccc(C(=O)Nc2cccc(-c3nc(N)nc(Nc4ccc(N5CCOCC5)cc4)n3)c2CO)cc1 [Example 208, N-(3-{4-Amino-6-[(4-morpholinophenyl)amino]-1,3,5-triazin-2-yl}-2-(hydroxymethyl)phe-nyl)-4-(2-hydroxy-propan-2-yl)benzamide] | 5.9 nM
CC(C)(C)c1ccc(C(=O)Nc2cccc(-c3nc(N)nc(Nc4ccc(OCCN5CCCC5)cc4)n3)c2CO)cc1 [Example 152, N-{3-[4-Amino-6-({4-[2-(pyrrolidin-1-yl)eth-oxy]phenyl}amino)-1,3,5-triazin-2-yl]-2-(hy-droxymethyl)phenyl}-4-(tert-butyl)benzamide] | 1.2 nM
CN(CCO)c1ccc(Nc2nc(N)nc(-c3cccc(N4CCc5cc(C6CC6)cc(F)c5C4=O)c3CO)n2)cc1 [Example 246, 2-{3-[4-Amino-6-({4-[(2-hydroxyethyl)(meth-yl)amino]phenyl}amino)-1,3,5-triazin-2-yl]-2-(hydroxymethyl)phe-nyl}-6-cyclopropyl-8-fluoro-3,4-dihydroiso-quinolin-1(2H)-one] | 2.7 nM
CC(C)(C)c1ccc(C(=O)Nc2cccc(-c3nc(N)nc(Nc4ccc(N5CCOCC5)nc4)n3)c2CO)cc1 [Example 174, N-(3-{4-Amino-6-[(6-morpholinopyridin-3-yl)amino]-1,3,5-triazin-2-yl}-2-(hydroxymeth-yl)phenyl)-4-(tert-butyl)benzamide] | 1.5 nM
Nc1nc(Nc2ccc(N3CCN(C=O)CC3)cc2)nc(-c2cccc(N3CCc4cc(C5CC5)cc(F)c4C3=O)c2CO)n1 [Example 189, 4-[4-({4-Amino-6-[3-(6-cyclopropyl-8-fluoro-1-oxo-3,4-dihydroiso-quinolin-2(1H)-yl)-2-(hydroxymethyl)phenyl]-1,3,5-triazin-2-yl}amino)phenyl]pipera-zine-1-carbaldehyde] | 1.2 nM
COc1cc(Nc2nc(N)nc(-c3cccc(NC(=O)c4ccc(C(C)(C)C)cc4)c3CO)n2)cc(OC)c1OC [Example 91, N-(3-{4-Amino-6-[(3,4,5-trimethoxyphenyl)ami-no]-1,3,5-triazin-2-yl}-2-(hydroxymethyl)phenyl)-4-(tert-butyl) benzamide] | 1.1 nM
COCCOc1ccc(Nc2nc(N)nc(-c3cccc(NC(=O)c4ccc(C(C)(C)C)cc4)c3CO)n2)cc1 [Example 74, N-[3-(4-Amino-6-{[4-(2-methoxyethoxy)phenyl]amino}-1,3,5-triazin-2-yl)-2-(hydroxymeth-yl)phenyl]-4-(tert-butyl) benzamide] | 0.7 nM
CC(C)(C)OC(=O)N1CCN(c2ccc(Nc3nc(N)nc(-c4cccc(NC(=O)c5ccc(C(C)(C)C)cc5)c4CO)n3)cc2)CC1 [Example 104, tert-Butyl 4-{4-[(4-amino-6-{3-[4-(tert-butyl)benzamido]-2-(hydroxymethyl)phenyl}-1,3,5-triazin-2-yl)amino]phenyl} piperazine-1-carboxylate] | 5 nM
NC(=O)c1cc(Nc2nc(N)nc(-c3cccc(N4CCc5cc(C6CC6)cc(F)c5C4=O)c3CO)n2)c[nH]1 [Example 255, 4-({4-Amino-6-[3-(6-cyclo-propyl-8-fluoro-1-oxo-3,4-dihydroisoquino-lin-2(1H)-yl)-2-(hydroxy-methyl)phenyl]-1,3,5-triazin-2-yl}ami-no)-1H-pyrrole-2-carboxamide] | 0.5 nM
CCn1ccc(Nc2nc(N)nc(-c3cccc(N4CCc5cc(C6CC6)cc(F)c5C4=O)c3CO)n2)c1 [Example 231, 2-(3-{4-Amino-6-[(1-eth-yl-1H-pyrrol-3-yl)ami-no]-1,3,5-triazin-2-yl}-2-(hydroxymethyl)phenyl)-6-cyclopropyl-8-fluoro-3,4-dihydro-isoquinolin-1(2H)-one] | 1.7 nM
CC(C)(C)c1ccc(C(=O)Nc2cccc(-c3nc(N)nc(Nc4ccc(C(N)=O)cc4)n3)c2CO)cc1 [Example 149, N-(3-{4-Amino-6-[(4-carbamoylphenyl)amino]-1,3,5-triazin-2-yl}-2-(hydroxymethyl)phe-nyl)-4-(tert-butyl) benzamide] | 0.5 nM
COCCOc1ccc(Nc2nc(N)nc(-c3cccc(NC(=O)c4cc5c(s4)CCCC5)c3CO)n2)cc1 [Example 134, N-[3-(4-Amino-6-{[4-(2-methoxyethoxy)phenyl]amino}-1,3,5-triazin-2-yl)-2-(hydroxymeth-yl)phenyl]-4,5,6,7-tetra-hydrobenzo[b]thio-phene-2-carboxamide] | 0.9 nM
COCCOc1ccc(Nc2nc(N)nc(-c3cccc(NC(=O)c4cc5c(s4)CCCC5)c3CO)n2)cc1OCCOC [Example 131, N-[3-(4-Amino-6-{[3,4-bis(2-methoxyethoxy)phenyl]amino}-1,3,5-tri-azin-2-yl)-2-(hydroxy-methyl)phenyl]-4,5,6,7-tetrahydrobenzo[b] thiophene-2-carboxamide] | 0.4 nM
Nc1nc(Nc2ccn(CCO)c2)nc(-c2cccc(N3CCc4cc(C5CC5)cc(F)c4C3=O)c2CO)n1 [Example 234, 2-[3-(4-Amino-6-{[1-(2-hydroxyethyl)-1H-pyrrol-3-yl]amino}-1,3,5-triazin-2-yl)-2-(hy-droxymethyl)phenyl]-6-cyclopropyl-8-fluoro-3,4-dihydroisoquinolin-1(2H)-one] | 2.7 nM
Nc1nc(Nc2ccc(CN3CCOCC3)cc2)nc(-c2cccc(NC(=O)c3cc4c(s3)CCCC4)c2CO)n1 [Example 132, N-[3-(4-Amino-6-{[4-(mor-pholinomethyl)phe-nyl]amino}-1,3,5-triazin-2-yl)-2-(hydroxymeth-yl)phenyl]-4,5,6,7-tetrahydrobenzo[b]thio-phene-2-carboxamide] | 0.5 nM
CC(C)(C)c1ccc(C(=O)Nc2cccc(-c3nc(N)nc(Nc4ccc(N5CCNC(=O)C5)cc4)n3)c2CO)cc1 [Example 114, N-[3-(4-Amino-6-{[4-(3-oxopiperazin-1-yl)phe-nyl]amino}-1,3,5-tri-azin-2-yl)-2-(hydroxy-methyl)phenyl]-4-(tert-butyl)benzamide] | 1 nM
Nc1nc(Nc2ccc(N3CCOC(CO)C3)cc2)nc(-c2cccc(NC(=O)c3cc4c(s3)CCCC4)c2CO)n1 (stereo not shown) [Example 127, N-{3-[4-Amino-6-({4-[2-(hydroxymethyl)morpho-lino]phenyl}amino)-1,3,5-triazin-2-yl]-2-(hydroxymethyl)phenyl}-4,5,6,7-tetrahydro-benzo[b]thiophene-2-carboxamide] | 0.5 nM
CC(C)(C)c1ccc(C(=O)Nc2cccc(-c3nc(N)nc(Nc4ccc(N5CCCC(O)C5)cc4)n3)c2CO)cc1 (stereo not shown) [Example 125, N-[3-(4-Amino-6-{[4-(3-hydroxypiperidin-1-yl)phenyl]amino}-1,3,5-triazin-2-yl)-2-(hy-droxymethyl)phenyl]-4-(tert-butyl)benzamide] | 0.8 nM
CC(C)(C)c1ccc(C(=O)Nc2cccc(-c3nc(N)nc(Nc4ccc(N5CCOC(CO)C5)cc4)n3)c2CO)cc1 (stereo not shown) [Example 106, N-{3-[4-Amino--({4-[2-(hydroxymethyl)morpho-lino]phenyl}amino)-1,3,5-triazin-2-yl]-2-(hydroxymethyl)phenyl}-4-(tert-butyl)benzamide] | 0.7 nM
Nc1nc(Nc2ccc(N3CCNCC3)cc2)nc(-c2cccc(N3CCc4cc(C5CC5)cc(F)c4C3=O)c2CO)n1 [Example 191, 2-[3-(4-Amino-6-{[4-(pipe-razin-1-yl)phenyl]amino}-1,3,5-triazin-2-yl)-2-(hydroxymeth-yl)phenyl]-6-cyclopro-pyl-8-fluoro-3,4-dihy-droisoquinolin-1(2H)-one] | 1 nM
Cc1c(NC(=O)c2ccc(C(C)(C)C)cc2)cccc1-c1ncnc(Nc2ccc(C3C(=O)N(C)CCN3C)cc2)n1 (stereo not shown) [Example 37, 4-(tert-Butyl)-N-[3-(4-{[4-(1,4-dimethyl-3-oxopiperazin-2-yl)phe-nyl]amino}-1,3,5-tri-azin-2-yl)-2-methyl-phenyl]benzamide] | 2.7 nM
Nc1nc(Nc2ccn(C3CC3)c2)nc(-c2cccc(N3CCc4cc(C5CC5)cc(F)c4C3=O)c2CO)n1 [Example 277, 2-(3-{4-Amino-6-[(1-cyclo-propyl-1H-pyrrol-3-yl)amino]-1,3,5-tri-azin-2-yl}-2-(hydroxy-methyl)phenyl)-6-cyclo-propyl-8-fluoro-3,4-dihydroisoquinolin-1(2H)-one] | 3.3 nM
CC(C)(C)c1ccc(C(=O)Nc2cccc(-c3nc(N)nc(Nc4ccc5[nH]c(C(F)(F)F)nc5c4)n3)c2CO)cc1 [Example 187, N-[3-(4-Amino-6-{[2-(tri-fluoromethyl)-1H-benzo[d]imidazol-5-yl]amino}-1,3,5-triazin-2-yl)-2-(hydroxymeth-yl)phenyl]-4-(tert-butyl)benzamide] | 5.6 nM
Nc1nc(Nc2ccn(CC3CC3)c2)nc(-c2cccc(N3CCc4cc(C5CC5)cc(F)c4C3=O)c2CO)n1 [Example 248, 2-[3-(4-Amino-6-{[1-(cyclo-propylmethyl)-1H-pyrrol-3-yl]amino}-1,3,5-triazin-2-yl)-2-(hydroxymethyl)phenyl]-6-cyclopropyl-8-fluoro-3,4-dihydroisoquinolin-1(2H)-one] | 3.2 nM
CC(C)(C)c1ccc(C(=O)Nc2cccc(-c3nc(N)nc(Nc4ccc5nc[nH]c5c4)n3)c2CO)cc1 [Example 144, N-(3-{4-[(1H-Benzo[d]imidazol-6-yl)amino]-6-amino-1,3,5-triazin-2-yl}-2-(hydroxymeth-yl)phenyl)-4-(tert-butyl)benzamide] | 1.9 nM
CC(C)(C)c1ccc(C(=O)Nc2cccc(-c3nc(N)nc(Nc4ccc(Cn5cncn5)cc4)n3)c2CO)cc1 [Example 164, N-{3-[4-({4-[(1H-1,2,4-Triazol-1-yl)methyl]phenyl}amino)-6-amino-1,3,5-triazin-2-yl]-2-(hydroxymethyl)phe-nyl}-4-(tert-butyl) benzamide] | 0.5 nM
Nc1nc(Nc2ccc(Cn3cccn3)cc2)nc(-c2cccc(N3CCc4cc(C5CC5)cc(F)c4C3=O)c2CO)n1 [Example 50, 2-{3-[4-({4-[(1H-Pyra-zol-1-yl)methyl]phenyl}amino)-6-amino-1,3,5-triazin-2-yl]-2-(hy-droxymethyl)phenyl}-6-cyclopropyl-8-fluoro-3,4-dihydroisoquino-lin-1(2H)-one] | 1 nM
CC(C)(C)c1ccc(C(=O)Nc2cccc(-c3nc(N)nc(Nc4ccc5c(c4)ncn5CCCO)n3)c2CO)cc1 [Example 155, N-[3-(4-Amino-6-{[1-(3-hydroxypropyl)-1H-benzo[d]imidazol-5-yl]amino}-1,3,5-triazin-2-yl)-2-(hydroxymeth-yl)phenyl]-4-(tert-butyl)benzamide] | 0.8 nM
